In US5712161A, “Method for culturing animal cells in collagen drops on a support” (Nitta Gelatin Inc., priority 1993, dated 1998):
Like-named read-outs stand apart in the source and are kept apart here.

Tests used:
[1] = tested on: human breast cancer cells (surgical sample); assay: Anticancer agent sensitivity, FDA stain, volume by image analysis; details: 24 h agent contact; for FDA volume: image analysis; for Effect/control (FDA volume): ratio to control = 1.00
Method: (§1) Using a surgical sample as obtained from a human breast cancer patient as the starting material, it was treated according to the order as shown in the flow sheet.
(§2) The embedded culture was carried out as follows: 1 volume of 10-fold concentrated Ham's F12 culture solution (sodium bicarbonate-free) and 1 volume of a reconstituting buffer solution (50 mM NaOH solution containing 260 mM sodium bicarbonate and 200 mM-HEPES) were added to 8 volumes of Cellmatrix Type I-A (0.3% acid-soluble Type-I collagen solution: product of Nitta Gelatin Inc.); the breast cancer cells and the like as obtained in the above-mentioned preliminary culture and collection steps were added and well mixed into the resultant mixture; the final concentration was adjusted to 5×10^4 cells/ml; and the resultant mixture was kept in ice.
(§3) A 0.5-ml portion of the culture solution containing an anticancer agent was superposed on the globular collagen gel in which the cancer cells were embedded and which was obtained in the above-mentioned embedding step, and the cancer cells were allowed to be in contacted with the anticancer agent by keeping them in a 5% carbon dioxide incubator at 37° C. for 24 hours. The following six anticancer agents were used: MMC (mitomycin C), CDDP (cisplatin), VDS (vindesine), VP-16, 5-FU (5fluorouracil) and ADM (adriamycin).
(§4) Then, the culture solution containing the anticancer agent was removed by suction, 0.5 ml of a culture solution free from an anticancer agent was instead added, the resultant mixture was shaken in a 5% carbon dioxide incubator, thus washing the globular collagen gel. This procedure was repeated at least every 10 minutes for a total of 3 times, whereby the anticancer agent was removed from the globular collagen gel.
(§5) After the above-mentioned agent contact step, 0.5 ml of a culture solution was added, and the culture was effected at 37° C. in a 5% carbon dioxide incubator for 7-14 days. The culture solution was exchanged every 1-2 days.
(§6) The culture solution for the washing was free from sodium bicarbonate and cooled to 4° C. before use.
(§7) The culture container was then transferred to a cooled dark box. The culture solution was exchanged with a culture solution, to which an FDA-staining agent (FDA concentration: 2-10 μg/ml) which reacts due to esterase activity in live cells had been added, and was shaken for one hour in a refrigerator (10° C.), thus reacting the FDA with the cells.
(§8) The fluorescently colored cells were quantified by image analysis. The image for the image analysis was created using, an inverted fluorescent microscope, a sample holder cooling apparatus (in-house product), an excitatory light irradiation control apparatus, a sample holder driving apparatus and a high-sensitivity cooled CCD camera. The volume was measured on the basis of this image using an image analyzer according to a conventional method. The intensity of the excitatory light was 1×10^3 lux.sec on the sample holder.

[2] = tested on: human breast cancer cells (surgical sample); assay: Anticancer agent sensitivity, FDA stain, fluorescence intensity on image; details: 24 h agent contact; for FDA image fluorescence units: fluorescence intensity on image; for Effect/control (FDA image fluorescence): ratio to control = 1.00
Method: as §2
(§9) Next, this collagen mixture solution was placed onto a 24-well multiplate at 30 μl/well using a micropipette and gelated to prepare globular collagen gels (for details see Example 1G).
as §3, §4
(§10) After the above-mentioned agent contact step, 0.5 ml of a culture solution was added, and the culture was effected at 37° C. in a 5% carbon dioxide incubator for 7-14 days. The culture solution was exchanged every 1-2 days. The proliferation culture solution as used was a culture solution containing a DF culture solution+10% FBS+5μg/ml insulin (product of Sigma Chemical Co.)+10 ng/ml EGF (EGF: epidermal growth factor, product of Becton Dickinson Labware)+20 ng/ml hydrocortisone (product of Sigma Chemical Co.) (see Example 1H).
(§11) The culture solution was exchanged with a culture solution, to which an FDA-staining agent (FDA concentration: 2-10 μg/ml) which reacts due to esterase activity in live cells had been added, and was shaken for one hour in a refrigerator (10° C.), thus reacting the FDA with the cells.
as §8
(§12) In addition to the conventional known volume measurement by image analysis, the viability of the cells was also measured by quantifying the fluorescence intensity on the image.

[3] = tested on: human breast cancer cells (surgical sample); assay: Anticancer agent sensitivity, Neutral Red stain, volume by image analysis; details: 24 h agent contact; for Neutral Red volume: image analysis of fixed, dried gel; for Effect/control (Neutral Red volume): ratio to control = 1.00
Method: as §1, §2, §9, §3, §4, §10
(§13) The culture solution for the washing was a DME culture solution.
(§14) The culture solution was exchanged with a culture solution to which an NR-staining agent had been added (NR concentration: 25-50 μg/ml), and shaking was effected for 2 hours in a carbon dioxide incubator, thus incorporating the NR into the cells.
(§15) After the stain, the culture solution containing the NR was exchanged with PBS (Phosphate Buffered Saline), and the sample was allowed to stand stationary in a room for 10 minutes, thus removing the NR remaining outside of the cells.
(§16) Next, the PBS was exchanged with neutral 10% formalin, and the sample was allowed to stand stationary in a room for 40 minutes, thus fixing the cells and the NR as incorporated into the cells.
(§17) The globular collagen gel to which the cells had been fixed was immersed in distilled water for 10 minutes, thus removing the salts. When the globular collagen gel which had been immersed in the distilled water was air-dried at room temperature, whereby a flat dried product was formed.
(§18) At this time, the cultured cells were fixed in the dried collagen gel while containing the NR.
(§19) The volume of the fixed cells was measured using an image analyzer in the same manner as mentioned above.

[4] = tested on: human breast cancer cells (surgical sample); assay: Anticancer agent sensitivity, FDA spectrophotofluorimetry of extracted dye; details: 24 h agent contact; for FDA spectrophotofluorimetry fluorescence units: excitation 490 nm, detection 520 nm; for Effect/control (FDA spectrophotofluorimetry): ratio to control = 1.00
Method: as §2, §9, §3, §4, §10, §7
(§20) The cultured cell sample as subjected to the fluorescent stain was washed for one hour with a fresh cooled culture solution, thus removing the extracellular fluorescent reagent. The culture solution as used for the washing was a DME culture solution. This solution was further exchanged with a culture solution of 37° C., shaking was performed for one hour in an incubator at 37° C., and the FDA which had reacted in the cells was extracted into the solution. The culture solution was separated off and measured using a fluorospectrophotometer, with an excitatory wavelength of 490 nm and a detection wavelength of 520 nm.

[5] = tested on: human breast cancer cells (surgical sample); assay: Anticancer agent sensitivity, globular collagen gel-embedded culture, Alamar Blue fluorescence; details: 24 h agent contact; for AlamarBlue fluorescence intensity: excitation 560 nm, detection 590 nm; for Effect/control (AlamarBlue fluorescence): ratio to control = 1.00
Method: as §1, §2
(§21) A 0.5-ml portion of the culture solution containing an anticancer agent was superposed on the globular collagen gel in which the cancer cells were embedded and which was obtained in the above-mentioned embedding step, and the cancer cells were allowed to be in contacted with the anticancer agent by keeping them in a 5% carbon dioxide incubator at 37° C. for 24 hours.
as §4, §5
(§22) For the measurement, an AB coloring agent was used to cause a color reaction by the reductive activity of the cells.
(§23) The AB coloring agent was added in an amount of 1/50-1/10 relative to the culture solution, and the reaction was conducted for 6 hours in a carbon dioxide incubator.
(§24) The same culture solution was also measured using a fluorospectrophotometer, with an excitatory wavelength of 560 nm and a detection wavelength of 590 nm.

[6] = tested on: human breast cancer cells (surgical sample); assay: Anticancer agent sensitivity, globular collagen gel-embedded culture, Alamar Blue (AB) absorbance; details: 24 h agent contact, 7-14 days culture; for AlamarBlue absorbance: 570 nm, reference 600 nm; for Effect/control (AlamarBlue absorbance): ratio to control = 1.00
Method: (§25) The capsule, fat, etc. were removed from the tissue containing the breast cancer using scissors and forceps under aseptic conditions, and then sliced with a razor.
(§26) The live tumor cells as obtained by the above-mentioned preliminary culture and collection steps were embedded into a globular collagen gel and cultured.
as §2, §3, §4, §5
(§27) The viability of the cells in the sample as obtained by the culture was measured.
as §22, §23
(§28) After the reaction, the culture solution was separated off, and the absorbance of the culture solution was measured using a spectrophotometer. The measurement of the absorbance was performed at 570 nm with a reference wavelength of 600 nm.

[7] = tested on: rabbit-oriented vascular endothelial cells; assay: Proliferation shape of vascular endothelial cells around globular collagen gel containing TGF-β; assay type: cell-based
Description: The procedure of Example 23 was repealed, but TGF-β (a transformation growth factor) was substituted for the cells of the group A, and rabbit-oriented vascular endothelial cells for the cells of the group B, and the following modifications were made. […] In FIG. 7, the transformation growth factor 70 is contained in the globular collagen gel 20a. A collagen gel 80a in which the rabbit-oriented vascular endothelial cells 50d were embedded was placed in the layered form into the inside of the multiplate 10, such that the globular collagen gel 20a was covered with the collagen gel 80a. The test was carried out in the same way as in Example 22 except for the components as contained in each collagen gel and for the placement of the gels. In addition, the collagen gel 80a was evaluated by microscopy.
As a result, different proliferation shapes of the vascular endothelial cells were observed depending on the distance from the surface of the globular collagen gel 20a.

[8] = tested on: human breast cancer cells (surgical sample); details: primary breast cancer cells, 24 h
Method: as §25, §26, §2, §3, §4, §5, §27, §22, §23, §28

[9] = tested on: human breast cancer cells (surgical sample); details: primary breast cancer cells, 24 h; remark: listed apart in the source
Method: as §1, §2, §21, §4, §5, §22, §23, §24

[10] = tested on: human breast cancer cells (surgical sample); details: primary breast cancer cells, 24 h; remark: listed apart in the source
Method: as §1, §2, §3, §4, §5, §6, §7, §8

[11] = tested on: human breast cancer cells (surgical sample); details: primary breast cancer cells, 24 h; remark: listed apart in the source
Method: as §2, §9, §3, §4, §10, §11, §8, §12

[12] = tested on: human breast cancer cells (surgical sample); details: primary breast cancer cells, 24 h; remark: listed apart in the source
Method: as §2, §9, §3, §4, §10, §7, §20

[13] = tested on: human breast cancer cells (surgical sample); details: primary breast cancer cells, 24 h; remark: listed apart in the source
Method: as §1, §2, §9, §3, §4, §10, §13, §14, §15, §16, §17, §18, §19

[14] = tested on: breast cancer cells (surgical sample from a human cancer patient); assay: Anticancer agent sensitivity, NR extraction method, absorbance; assay type: cell-based; details: for Effect/control (Neutral Red absorbance): control = 1.00
Method: A test was conducted in the same way as in Example 1, but the image analysis of live cells as stained with the NR was not carried out, and the NR was instead extracted from the live cells, thus measuring the absorbance. A surgical sample (breast cancer) as obtained from a human cancer patient was used as the starting material, and the test was carried out according to the same procedures and methods as in Example 1, except for the procedures of the formalin-fixation, the drying and the image analysis in the pigment stain analysis step. The NR as incorporated into live cells was extracted by dissolving the collagen gel with collagenase in the culture container and then adding an NR extractant, and the absorbance of the resultant extract was measured.

[15] = tested on: breast cancer cells (surgical sample from a human cancer patient); assay: Anticancer agent sensitivity, MTT assay method, formazane absorbance; assay type: cell-based; details: for Effect/control (formazane absorbance): control = 1.00
Method: A test was conducted in the same way as in Example 1, but an MTT reagent was substituted for the AB coloring agent in the colorimetric analysis step. A surgical sample (breast cancer) as obtained from a human cancer patient was used as the starting material, and the test was carried out according to the same procedures and methods as in Example 1, except for the procedures subsequent to the colorimetric analysis step. The formazane as deposited in live cells was extracted by dissolving the collagen gel with collagenase in the culture container and then adding a formazane extractant, and the absorbance of the resultant extract was measured, when the deposited fine crystal of formazane was held in the collagen gel, such that results were obtained with good accuracy.

[16] = tested on: fibroblasts in human lung cancer and human breast cancer samples; assay: Fibroblast proliferation in preliminary culture, microscopic observation; assay type: cell-based; details: 10 μg/ml dextran sulfate in serum culture solution, 7 days
Method: Thus, an investigation was made with regard to a serum-free culture solution (DF culture solution+5 μg/ml insulin+10 ng/ml EGF+8 ng/ml sodium selenite+10 μg/ml transferrin+5 mg/ml BSA) (BSA: bovine serum albumin) and a serum culture solution containing dextran sulfate (DF culture solution+10% FBS+insulin+EGF+hydrocortisone 10 μg/ml dextran sulfate).
The experimental materials used were the 14 cases of human lung cancer and 12 cases of human breast cancer which had adhered to the bottom of the culture dishes in Example 1A above as controls, and the above-mentioned culture solutions (the serum-free culture solution and the dextran sulfate-containing serum culture solution) were used to culture cells for 7 days.

[17] = 5-FU concentration 0.1 (Cmax = 1)
[18] = 5-FU concentration 0.2 (Cmax = 1)
[19] = 5-FU concentration 0.4 (Cmax = 1)
[20] = 5-FU concentration 0.6 (Cmax = 1)
[21] = 5-FU concentration 0.8 (Cmax = 1)
[22] = 5-FU concentration 1.0 (Cmax = 1)

COc1cccc2c1C(=O)c1c(O)c3c(c(O)c1C2=O)C[C@@](O)(C(=O)CO)C[C@@H]3O[C@H]1C[C@H](N)[C@H](O)[C@H](C)O1 [ADM, adriamycin]
FDA volume [1]: 10.93 10^7 μm^3 | Effect/control (FDA volume) [1]: 0.72 | FDA image fluorescence units [2]: 5.35 10^1 | Effect/control (FDA image fluorescence) [2]: 0.70 | Neutral Red volume [3]: 12.26 10^7 μm^3 | Effect/control (Neutral Red volume) [3]: 0.73 | FDA spectrophotofluorimetry fluorescence units [4]: 5.33 10^1 | Effect/control (FDA spectrophotofluorimetry) [4]: 0.72 | AlamarBlue fluorescence intensity [5]: 4.81 10^2 | Effect/control (AlamarBlue fluorescence) [5]: 0.68 | AlamarBlue absorbance [6]: 0.65 | Effect/control (AlamarBlue absorbance) [6]: 0.68

[NH2][Pt]([NH2])([Cl])[Cl] [CDDP, cisplatin]
FDA volume [1]: 5.68 10^7 μm^3 | Effect/control (FDA volume) [1]: 0.37 | FDA image fluorescence units [2]: 3.43 10^1 | Effect/control (FDA image fluorescence) [2]: 0.45 | Neutral Red volume [3]: 6.25 10^7 μm^3 | Effect/control (Neutral Red volume) [3]: 0.37 | FDA spectrophotofluorimetry fluorescence units [4]: 3.50 10^1 | Effect/control (FDA spectrophotofluorimetry) [4]: 0.47 | AlamarBlue fluorescence intensity [5]: 2.66 10^2 | Effect/control (AlamarBlue fluorescence) [5]: 0.38 | AlamarBlue absorbance [6]: 0.40 | Effect/control (AlamarBlue absorbance) [6]: 0.42

COc1cc(C2c3cc4c(cc3C(OC3OC5COC(C)OC5C(O)C3O)C3COC(=O)C23)OCO4)cc(OC)c1O (stereo not shown) [VP-16]
Effect/control (FDA volume) [1]: 0.93 | FDA image fluorescence units [2]: 7.23 10^1 | Effect/control (FDA image fluorescence) [2]: 0.94 | Neutral Red volume [3]: 15.54 10^7 μm^3 | Effect/control (Neutral Red volume) [3]: 0.92 | FDA spectrophotofluorimetry fluorescence units [4]: 6.90 10^1 | Effect/control (FDA spectrophotofluorimetry) [4]: 0.93 | AlamarBlue fluorescence intensity [5]: 6.64 10^2 | Effect/control (AlamarBlue fluorescence) [5]: 0.94 | AlamarBlue absorbance [6]: 0,87 | Effect/control (AlamarBlue absorbance) [6]: 0.91

TGF-β
Proliferation state of vascular endothelial cells ([7]; 0 mm from surface of gel 20a): lump | Proliferation state of vascular endothelial cells ([7]; 1 mm from surface of gel 20a): tree | Proliferation state of vascular endothelial cells ([7]; 3 mm from surface of gel 20a): lump | Proliferation state of vascular endothelial cells ([7]; 4 mm from surface of gel 20a): lump

CC[C@]1(O)C[C@@H]2CN(CCc3c([nH]c4ccccc34)[C@@](C(=O)OC)(c3cc4c(cc3OC)N(C)[C@H]3[C@@](O)(C(N)=O)[C@H](O)[C@]5(CC)C=CCN6CC[C@]43[C@@H]65)C2)C1 [VDS, vindesine]
Effect/control (AlamarBlue absorbance) [8]: 0.73 | Effect/control (AlamarBlue fluorescence) [9]: 0.72 | Effect/control (FDA volume) [10]: 0.61 | Effect/control (FDA image fluorescence) [11]: 0.62 | Effect/control (FDA spectrophotofluorimetry) [12]: 0.61 | Effect/control (Neutral Red volume) [13]: 0.60 | FDA volume [1]: 9.25 10^7 μm^3 | FDA image fluorescence units [2]: 4.74 10^1 | Neutral Red volume [3]: 10.10 10^7 μm^3 | FDA spectrophotofluorimetry fluorescence units [4]: 4.52 10^1 | AlamarBlue fluorescence intensity [5]: 5.13 10^2 | AlamarBlue absorbance [6]: 0.69

O=c1[nH]cc(F)c(=O)[nH]1 [5-FU, 5fluorouracil]
Neutral Red absorbance [14, 17]: 0.307 | Effect/control (Neutral Red absorbance) [14, 17]: 0.88 | Neutral Red absorbance [14, 18]: 0.206 | Effect/control (Neutral Red absorbance) [14, 18]: 0.59 | Neutral Red absorbance [14, 19]: 0.123 | Effect/control (Neutral Red absorbance) [14, 19]: 0.35 | Neutral Red absorbance [14, 20]: 0.100 | Effect/control (Neutral Red absorbance) [14, 20]: 0.29 | Neutral Red absorbance [14, 21]: 0.079 | Effect/control (Neutral Red absorbance) [14, 21]: 0.23 | Neutral Red absorbance [14, 22]: 0.072 | Effect/control (Neutral Red absorbance) [14, 22]: 0.21 | Formazane absorbance [15, 17]: 1.036 | Effect/control (formazane absorbance) [15, 17]: 0.88 | Formazane absorbance [15, 18]: 0.774 | Effect/control (formazane absorbance) [15, 18]: 0.66 | Formazane absorbance [15, 19]: 0.599 | Effect/control (formazane absorbance) [15, 19]: 0.51 | Formazane absorbance [15, 20]: 0.515 | Effect/control (formazane absorbance) [15, 20]: 0.44 | Formazane absorbance [15, 21]: 0.450 | Effect/control (formazane absorbance) [15, 21]: 0.38 | Formazane absorbance [15, 22]: 0.429 | Effect/control (formazane absorbance) [15, 22]: 0.37 | Effect/control (AlamarBlue absorbance) [8]: 0.73 | Effect/control (AlamarBlue fluorescence) [9]: 0.71 | Effect/control (FDA volume) [10]: 0.65 | Effect/control (FDA image fluorescence) [11]: 0.62 | Effect/control (FDA spectrophotofluorimetry) [12]: 0.63 | Effect/control (Neutral Red volume) [13]: 0.64 | FDA volume [1]: 9.89 10^7 μm^3 | FDA image fluorescence units [2]: 4.77 10^1 | Neutral Red volume [3]: 10.76 10^7 μm^3 | FDA spectrophotofluorimetry fluorescence units [4]: 4.68 10^1 | AlamarBlue fluorescence intensity [5]: 5.07 10^2 | AlamarBlue absorbance [6]: 0.69

CO[C@@]12[C@H](COC(N)=O)C3=C(C(=O)C(C)=C(N)C3=O)N1C[C@@H]1N[C@@H]12 [MMC, mitomycin C]
Effect/control (AlamarBlue absorbance) [8]: 0.42 | Effect/control (AlamarBlue fluorescence) [9]: 0.46 | Effect/control (FDA volume) [10]: 0.33 | Effect/control (FDA image fluorescence) [11]: 0.42 | Effect/control (FDA spectrophotofluorimetry) [12]: 0.46 | Effect/control (Neutral Red volume) [13]: 0.31 | FDA volume [1]: 5.07 10^7 μm^3 | FDA image fluorescence units [2]: 3.26 10^1 | Neutral Red volume [3]: 5.19 10^7 μm^3 | FDA spectrophotofluorimetry fluorescence units [4]: 3.37 10^1 | AlamarBlue fluorescence intensity [5]: 3.24 10^2 | AlamarBlue absorbance [6]: 0.40

dextran sulfate
proliferation of the fibroblasts [16]: partially suppressed
